Values joined by “and” are separate entries in the source; they are usually repeats but may differ in a detail not shown here. Equal values may be shown once. Read-outs that look alike come from different tables or passages of the source.
What was measured:
AGS cells [1] = assay: Cell viability, crystal violet staining; details: for Cell Viability without NAC: AGS cells, Fig. S6A; for IC50: read-out: IC50 concentration (± SD) at 48 h, 48 h
Method: (§1) Cell viability was assessed using a crystal violet-based staining method. […] The cells (2 × 10^5) were seeded in 24-multiwell dishes in 0.5 mL of complete medium and incubated overnight. […] After 48 h, cells were fixed with 1% glutaraldehyde (20–30 min), washed with distilled water, and stained with 0.1% crystal violet. […] IC50 were calculated by using GraphPad Prism (version 8.0). Nonlinear regression was used to fit the data to the log (inhibitor) versus response (variable slope).

MKN45 cells [2] = assay: Cell viability, crystal violet staining; details: for Cell Viability without NAC: MKN45 cells, Fig. S6A; for IC50: read-out: IC50 concentration (± SD) at 48 h, 48 h
Method: as §1

PANC1 cells [3] = assay: Cell viability, crystal violet staining; details: for Cell Viability without NAC: PANC1 cells, Fig. S6A; for IC50: read-out: IC50 concentration (± SD) at 48 h, 48 h
Method: as §1

CC2509 fibroblasts = assay: Cell viability, crystal violet staining, non-tumoral cells; details: CC2509, 48 h
Method: as §1

HPDE cells = assay: as above; details: for percentage of viable cells: 48 h
Method: as §1

[4] = tested on: telomeres, 36B4, MT-COX1, MT-CYB DNA of MKN45 cells; assay: Oxidized bases (FPG-sensitive lesions) in genome regions by qPCR; type: cell-based, human; details: MKN45, IC50 concentration 24 h, normalized to control, single replicates
Source text: (§2) Total cellular DNA from MKN45 and PANC1 cells was extracted using an NZY Tissue gDNA Isolation Kit (Nzytech, MB13503) following the manufacturer’s instructions and quantified using a Nanodrop (Nanodrop Spectrophotometer ND-1000, ThermoFisher Scientific, Wilmington, DE, USA). We adapted the procedure described by O’Callaghan et al.[76] to measure oxidative DNA damage at telomeres, 36B4 genomic region and at mitochondrial DNA (MT-COX1, MT-CYB). This is a qPCR method based on differences in PCR kinetics between DNA template digested by Formamidopyrimidine DNA Glycosylase (FPG, Cat no. M0240S) and undigested DNA. This enzyme recognizes and cuts 8-oxoguanine, producing apurinic sites that are converted into single-strand breaks by its apurinic sites lyase activity. These single-strand breaks inhibit the PCR, thus, the ΔCT after digesting DNA by […] (Ct digested–Ct undigested) is proportional to the oxidative damage in the amplified region. DNA was incubated with 8 Units of FPG during 3 h in FPG buffer (NEB1, M0240S). The reaction was stopped by incubation at 95 °C for 5 min. qPCR analysis was performed on 40 ng of digested or undigested genomic DNA. Each qPCR was performed in triplicate including no-template controls in a StepOne Real‐time PCR System (Applied Biosystems, 4376357). Target genes (Table 3) were amplified using SYBR Green (Applied Biosystems, MB345). Thermal cycling of the qPCR reaction was initiated with a denaturation step at 95 °C for 10 min. The process consisted of 40 cycles (denaturation at 95 °C for 15 sec, annealing at 60 °C for 30 sec, and elongation at 72 °C for 30 sec). This experiment was repeated three independent times with 10–12 replicates.

[5] = tested on: telomeres, 36B4, MT-COX1, MT-CYB DNA of PANC1 cells; assay: as above; type: cell-based, human; details: PANC1, IC50 concentration 24 h, normalized to control, single replicates
Source text: as §2

AGS cells [6] = assay: SA-β-Gal activity, CellEvent Senescence Green flow cytometry;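 further: IC50 concentration of each compound relative to untreated control set as 1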; type: cell-based, human; details: Fig. 3A, replicate values
Method: (§3) SA-β-Gal activity was measured following two different approaches. (i) AGS, MKN45 and PANC1 cells (5 × 10^4) were seeded in 24-multiwell dishes and incubated overnight. […] For flow cytometry cell senescence detection, cells were tripsinized, fixed for 15 min with PFA 4% and stained with the CellEvent Senescense Green Flow Cytometry Assay Kit (C10840, Invitrogen) according to manufacturer’s instructions. CellEvent Senescense Green Probe was used at a 1:500 dilution and fluorescence was detected using the filter (Ex488nm/Em530/30) BL1 with a 4-laser Attune NxT Acoustic Cytometer (Thermo Fisher Scientific). […] After 3 h, the treatments were removed, new supplemented medium was added, and cells were incubated for an additional 24 h. Finally, SA-β-Gal staining was performed using the Senescence Cells Histochemical Staining Kit (CS0030-1KT) according to the manufacturer’s instructions.

MKN45 cells [7] = assay: as above; type: cell-based, human; details: Fig. 3A, replicate values
Method: as §3

PANC1 cells [8] = assay: as above; type: cell-based, human; details: Fig. 3A, replicate values
Method: as §3

AGS cells [9] = assay: SA-β-Gal histochemical staining; type: cell-based, human; details: Fig. S4A
Method: as §3

PANC1 cells [10] = assay: Ratio GSH/GSSG, colorimetric kit; type: cell-based, human
Method: GSH and GSSG levels were determined in AGS and PANC1 cells after 3 and 24 h of treatment with the compounds (using H2O2 as a positive control) with the Glutathione Colorimetric Detection Kit (ThermoFisher) following the manufacturer’s instructions. Thirty minutes after adding the Colorimetric Detection Reagent and the Reaction Mixture, the absorbance was read at 405 nm. A standard curve was generated with each assay to interpolate the sample results. To measure GSSG, standards and samples must be diluted with the Sample Diluent containing 2-vinylpyridine.

PANC1 cells [11] = assay: Clonogenic (CFU) assay after 1, 3, 24 h pre-treatment; type: cell-based, human
Method: For the clonogenic assay we used two different approaches. […] Then, cells were cultured in a 6-well plate at a very low concentration (2 × 10^3 cells per well) and incubated for 10 days. […] To evaluate the role of ROS in cell proliferation, we supplemented the growth medium with 0.5 mM NAC. After 10 days, the cells were fixed with 1% glutaraldehyde and stained with 0.1% crystal violet. The number of colonies was quantified directly and reflected as CFUs: Colony Forming Units.

[12] = read-out: IC50 concentration (± SD) at 48 h in non-tumoral cell lines

With CC(C)[NH][Pt@SP1]([I])([I])[NH]C(C)C [I6, cis-[PtI2(isopropylamine)2]] the IC25 concentration (AGS cells [1]; AGS) was 15 µM, the “Cell Viability without NAC” value (AGS cells [1]; dose 10 µM) was 105.035 and the “Cell Viability without NAC” value (AGS cells [1]; dose 50 µM) was 68.1853. The “Cell Viability without NAC” value (AGS cells [1]; dose 75 µM) was 30.4823, the IC50 (AGS cells [1]; AGS, NAC (+) 0.5 mM) was over 100 µM and the IC50 (AGS cells [1]; AGS, NAC (-)) was 50 µM and 51.5 µM. For the same compound, the “Cell Viability without NAC” value (MKN45 cells [2]; dose 7.5 µM) was 99.1588 and 99.2583 and 108.83, the “Cell Viability without NAC” value (MKN45 cells [2]; dose 18.7 µM) was 103.308 and 97.338 and 102.412 and the “Cell Viability without NAC” value (MKN45 cells [2]; dose 37.4 µM) was 85.458 and 67.9963 and 88.4728. For the same compound, the “Cell Viability without NAC” value (MKN45 cells [2]; dose 56.1 µM) was 58.2655 and 42.2365 and 52.8031, the “Cell Viability without NAC” value (MKN45 cells [2]; dose 74.8 µM) was 41.9977 and 31.3714 and 39.5202 and the IC50 (MKN45 cells [2]; MKN45, NAC (+) 0.5 mM) was over 100 µM. For the same compound, the IC50 (MKN45 cells [2]; MKN45, NAC (-)) was 56.8 ± 1.53 µM, the “Cell Viability without NAC” value (PANC1 cells [3]; dose 10 µM) was 77.9259 and 88.6605 and 70.8131 and the “Cell Viability without NAC” value (PANC1 cells [3]; dose 25 µM) was 47.4239 and 33.5177 and 35.073. The “Cell Viability without NAC” value (PANC1 cells [3]; dose 50 µM) was 47.9877 and 31.0793 and 43.6951, the IC50 (PANC1 cells [3]; PANC1, NAC (+) 0.5 mM) was over 100 µM and the IC50 (PANC1 cells [3]; PANC1, NAC (-)) was 20 µM and 18.8 µM. The “percentage of viable cells” value (CC2509 fibroblasts; dose 2.5 µM) was 101.369% and 68.5642% and 72.6415%, the “percentage of viable cells” value (CC2509 fibroblasts; dose 5 µM) was 100.382% and 62.1377% and 89.6445% and the “percentage of viable cells” value (CC2509 fibroblasts; dose 10 µM) was 50.1592% and 62.7776% and 90.9953%. For the same compound, the “percentage of viable cells” value (CC2509 fibroblasts; dose 25 µM) was 52.2611% and 59.729% and 78.3886%, the “percentage of viable cells” value (CC2509 fibroblasts; dose 50 µM) was 30.3822% and 34.0139% and 46.6351% and the IC50 (CC2509 fibroblasts; [12]) was 35 µM and 33.8 µM. For the same compound, the “percentage of viable cells” value (HPDE cells; dose 2.5 µM) was 88.7955% and 72.4125% and 95.3401%, the “percentage of viable cells” value (HPDE cells; dose 5 µM) was 78.4314% and 72.7203% and 72.6353% and the “percentage of viable cells” value (HPDE cells; dose 10 µM) was 57.5163% and 55.8292% and 52.5038%. The “percentage of viable cells” value (HPDE cells; dose 25 µM) was 22.9225% and 35.4367% and 19.9292%, the “percentage of viable cells” value (HPDE cells; dose 50 µM) was 8.5901% and 14.6939% and 8.599% and the IC50 (HPDE cells; [12]) was 15 µM and 14.2 µM. For the same compound, the “TEL (Fold change - ΔCt TEL), oxidative DNA damage” value ([4]; FPG-digested vs undigested) was 0.7872 and 0.7903 and 0.6876 and 0.7373 and 0.6171 and 1.142 and 1.077 and 1.074 and 1.391, the “36B4 (Fold change - ΔCt 36B4), oxidative DNA damage” value [4] was 0.9227 and 0.9306 and 1.569 and 1.862 and 2.074 and 2.392 and 1.861 and 2.101 and 1.707 and 2.034 and the “MT-COX1 (Fold change - ΔCt MT-COX1), oxidative DNA damage” value [4] was 1.321 and 1.289 and 1.307 and 1.545 and 0.7235 and 0.8203 and 2.299 and 2.595 and 3.243 and 4.134. The “MT-CYB (Fold change - ΔCt MT-CYB), oxidative DNA damage” value [4] was 1.235 and 1.231 and 1.262 and 1.5934 and 1.492 and 1.356 and 1.4814 and 1.489 and 0.5469 and 0.6464 and 1.605, the “TEL (Fold change - ΔCt TEL), oxidative DNA damage” value ([5]; FPG-digested vs undigested) was 5.579 and 4.9877 and 4.471 and 0.2398 and 0.9572 and 1.407 and 2.172 and 1.711 and 1.673 and 1.777 and the “36B4 (Fold change - ΔCt 36B4), oxidative DNA damage” value [5] was 1.888 and 2.028 and 1.034 and 1.832 and 3.4044 and 3.392 and 3.578 and 2.951 and 2.103 and 2.482. The “MT-COX1 (Fold change - ΔCt MT-COX1), oxidative DNA damage” value [5] was 1.444 and 1.678 and 1.516 and 1.609 and 1.88 and 0.5367 and 1.4145 and 1.209 and 1.263 and 1.421, the “MT-CYB (Fold change - ΔCt MT-CYB), oxidative DNA damage” value [5] was 1.356 and 1.264 and 1.349 and 1.774 and 2.04 and 1.998 and 2.191 and 4.689 and 8.16 and 4.981 and 6.184 and the “Fold change % Senescence” value (AGS cells [6]) was 5.13 fold change and 5.74 fold change and 3.46 fold change. For the same compound, the “Fold change % Senescence” value (MKN45 cells [7]) was 5.26 fold change and 5.34 fold change and 6.2 fold change, the “Fold change % Senescence” value (PANC1 cells [8]) was 3.99 fold change and 3.23 fold change and 3.43 fold change and the “Fold change % Senescence” value (AGS cells [9]) was 49.02% and 67.7% and 53.18%. For the same compound, the GSH/GSSG (PANC1 cells [10]; PANC1, 3, relative to Control = 1) was 0.8833 and 0.8858 and 1.064, the GSH/GSSG (PANC1 cells [10]; PANC1, 24, relative to Control = 1) was 0.52 and 0.6511 and 0.6572 and the CFUs (PANC1 cells [11]; PANC1, 1 h pre-treatment at IC50, colonies after 10 days) was 336 and 264 and 360. The CFUs (PANC1 cells [11]; PANC1, 3 h pre-treatment at IC50, colonies after 10 days) was 292 and 280 and 324.

— article PMC10959927, “Platinum iodido drugs show potential anti-tumor activity, affecting cancer cell metabolism and inducing ROS and senescence in gastrointestinal cancer cells” (Communications Biology, 2024)
